{"source": "patent US11815435B2", "about": "“Beta glucan immunopharmacodynamics” (HiberCell, Inc., priority 2017, dated 2023)", "assay_type_in_all_cases": "in vivo, human", "key": {"[1]": {"test_system": "IPD responses (SC5b-9, monocyte and neutrophil mobilization, MCP-1, CIC, IL-8)", "test": "Immunopharmacodynamic (IPD) responses taken together: dose and dosing interval comparison", "conditions": "for IPD response: mid ABA (20-50 μg/ml) subjects", "experimental": "In Cohort 3, subjects received either 2 mg/kg PGG or 4 mg/kg PGG by IV infusion over 1-2 hours. The subjects were administered either dose of PGG once weekly for 2 weeks, then given a 2 week wash out (no PGG) and finally received one more dose of PGG (week 5). Adverse events and complete blood counts were evaluated. In addition, whole blood and serum was evaluated for the following at various time points post-infusion: PGG binding to immune cells (monocytes, neutrophils, B-cells, DC subsets), complement activation (C5a and Sc5b9), serum cytokine/chemokine levels, IgG ABA levels, flow cytometry of immune cells, circulating immune complex formation and Quantigene analysis of transcriptional profile. Table 1 lists each subject's pre-dose IgG ABA levels, PGG dose and whether they received premedications.\nThus, changes in IPD responses induced by PGG administration are dependent on ABA levels.\nIPD responses were compared between subjects within subgroups administered doses of either 2 mg/kg and 4 mg/kg PGG. […] Therefore, an effective dose of PGG for Mid-ABA subjects is higher than an effective dose of PGG for High-ABA subjects. This is beneficial to High-ABA subjects because with a lower PGG dose, they will experience fewer adverse events.\nIncreasing the time between soluble β-glucan doses may not only promote repeated acute IPD responses but also enhance acute IPD responses, which may increase the effectiveness of soluble β-glucan therapy. Subjects in Cohort 3, as described above, were administered a dose of PGG once weekly for 2 weeks, then given a 2 week wash out (no PGG) and finally received one more dose of PGG (week 5).\nLevels of CIC (FIG. 19), SC5b-9 (FIG. 20), neutrophil mobilization (FIG. 21), IL-8 (FIG. 22) and MCP-1 (FIG. 22) were also measured over the course of treatment. […] In some cases, acute IPD responses were only seen with the final dose—after the 2 week dosing interval. In other cases, the acute IPD responses were enhanced with the final dose. Thus, for some immunotherapies or even some individuals, increasing the amount of time between dosing with soluble β-glucan may lead to enhanced efficacy."}, "[2]": {"test_system": "MIP-1b, IP-10, IL-1 RA and I-TAC", "test": "Example 1: cytokine levels in the cancer subject", "experimental": "Cytokine levels were also measured during the immunotherapy treatment. […] In addition, less frequent dosing is more convenient and economical for the subject."}, "IL-8, MCP-1, MIP-1β": {"test_system": "IL-8, MCP-1, MIP-1β", "test": "Cytokine and chemokine serum levels (multiplex, Luminex) after IV PGG", "experimental": "IPD changes induced by yeast soluble β-glucan were evaluated in a Phase I healthy donor trial, which included three cohorts of 12 healthy human volunteers aged 18-65 years. In Cohort 1, subjects were administered a single dose of 4 mg/kg yeast soluble β-glucan by IV infusion over 2-3 hours. In Cohort 2, subjects were administered 4 mg/kg PGG by IV infusion over 2-3 hours once weekly for 3 weeks. Half of the subjects received premedications which included low dose corticosteroids (4 mg of dexamethasone, PO) and low-dose H1 antagonists (50 mg diphenhydramine.\nSubjects were stratified/classified into subgroups based on pre-infusion ABA levels. ABA cutoff levels were selected based on prior studies and are only exemplary. Classification may include only 2 subgroups based on an IgG ABA cutoff level of 15 μg/ml, 20 μg/ml, 25, μg/ml, 30 μg/ml, 35 μg/ml, 40 μg/ml, 45 μg/ml or 50 μg/ml. Classification may also include 3, 4, 5 or more subgroups with each subgroup corresponding to a specific IgG ABA level range. For example, a 3 subgroup classification may include a Low-ABA subgroup encompassing ABA level ranges of <15 μg/ml, <20 μg/ml, <25 μg/ml or <30 μg/ml, a Mid-ABA subgroup encompassing a range having a low end ABA level of 20 μg/ml, 25 μg/ml, 30 μg/ml, 35 μg/ml, 40 μg/ml or 45 μg/ml and a high end ABA level of 30 μg/ml, 35 μg/ml, 40 μg/ml, 45 μg/ml, 50 μg/ml or 55 μg/ml, and a High-ABA subgroup encompassing ABA level ranges of >35 μg/ml, >40 μg/ml, >45 μg/ml, >50 μg/ml, >55 μg/ml, >60 μg/ml, >65 μg/ml or >70 μg/ml. […] Serum and cellular IPD markers were analyzed pre-infusion, 15 minutes, 30 minutes and 1 hour post-infusion, end of infusion (EOI) and 1 hour, 2 hours, 3 hours, 4 hours, 24 hours, 48 hours and 168 hours after EOI.\nCytokine and chemokine serum levels were measured using Novex magnetic multiplex assay (Life Technologies) the Luminex XMAP technology. […]\nThe effect of premedications on IPD responses was also evaluated. […]"}}, "data": [{"substance": "β(1,6)-[poly-(1,3)-D-glucopyranosyl]-poly-β(1,3)-D-glucopyranose [PGG]", "values": [{"measurement": "acute IPD responses (CIC, SC5b-9, neutrophil mobilization, IL-8, MCP-1)", "setting": "[1]; Cohort 3, dosing after a 2 week dosing interval", "value": "generated or enhanced"}, {"measurement": "changes in IPD responses", "setting": "[1]; low-ABA subjects, PGG administration", "value": "very little to no changes in responses"}, {"measurement": "IPD response", "setting": "[1]; 2 mg/kg PGG", "value": "minimal response"}, {"measurement": "IPD response", "setting": "[1]; 4 mg/kg PGG", "value": "responded much better (on par with High-ABA subjects)"}, {"measurement": "IPD responses, 2 mg/kg vs 4 mg/kg dose", "setting": "[1]; subjects with ABA>50 μg/ml", "value": "similar"}, {"measurement": "cytokine levels (MIP-1b, IP-10, IL-1 RA, I-TAC)", "setting": "[2]; cancer subject after conversion to High-ABA group, IMPRIME PGG 4 mg/kg once every 3 weeks", "value": "acute IPD responses were seen"}, {"measurement": "recurrence of acute IPD responses", "setting": "[2]; cancer subject, soluble β-glucan administered once every 3 weeks (SC5b-9 and cytokines)", "value": "robust, acute IPD responses occurred with each administration"}, {"measurement": "PGG-mediated cytokine induction (IL-8) with premedications", "setting": "IL-8, MCP-1, MIP-1β; Mid-ABA and High-ABA subjects, dexamethasone and diphenhydramine premedication vs none", "value": "dampened"}, {"measurement": "increases in cytokine and chemokine serum levels, especially IL-8 and MCP-1", "setting": "IL-8, MCP-1, MIP-1β; pre-dose to end of infusion, healthy subjects", "value": "consistently detected"}, {"measurement": "acute IPD response in IL-8, MCP-1 and MIP-1 levels", "setting": "IL-8, MCP-1, MIP-1β; two High-ABA subjects, weekly dosing, after week 2 infusion", "value": "acute IPD response was seen"}]}]}
